Here are results for 61 molecules from patent publication US9567339B2, “Primary carboxamides as BTK inhibitors” (AbbVie Inc., priority 2013, dated 2017).

Bounds are passed on as bounds.

Sequence of BTK, recombinant human catalytic domain (aa 393-659) (Q06187 393-659): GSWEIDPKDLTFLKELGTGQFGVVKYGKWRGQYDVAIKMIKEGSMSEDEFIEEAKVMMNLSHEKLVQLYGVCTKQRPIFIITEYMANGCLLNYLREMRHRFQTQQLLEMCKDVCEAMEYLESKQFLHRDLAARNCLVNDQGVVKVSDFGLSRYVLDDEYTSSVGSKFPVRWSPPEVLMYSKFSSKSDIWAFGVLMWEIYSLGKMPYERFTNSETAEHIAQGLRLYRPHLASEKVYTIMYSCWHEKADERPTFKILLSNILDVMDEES

One experiment concerns the target BTK, recombinant human catalytic domain (aa 393-659) (Homo sapiens (Human), UniProt Q06187). In words: In vitro BTK kinase activity measured by time-resolved fluorescence resonance energy transfer (trFRET). The class given is biochemical. The following applies: read-out: Btk IC50.
By IC50 is commonly meant the concentration at which inhibition is half-maximal. On to `C=CC(=O)N1CC(N(C)c2ccc(C(N)=O)c3[nH]c(-c4ccc5c(c4)NCCO5)cc23)C1` [E.9.15], for which the IC50 was < 100 nM.

As for `Cc1c(-c2ccc(C(N)=O)c3[nH]c(-c4cnn(CCO)c4)cc23)cccc1-n1cnc2ccccc2c1=O` [M.1.2], the 50% inhibitory concentration (IC50) is < 100 nM.

On to `C=CC(=O)N1CCOC[C@@H](c2ccc(C(N)=O)c3[nH]ccc23)C1` [E.9.38], for which the IC50 is < 100 nM.

As to `Cc1c(NC(=O)C2CCCC2)cccc1-c1ccc(C(N)=O)c2[nH]c(C3=CCN(S(C)(=O)=O)CC3)cc12` [D.7.31], the IC50 is < 100 nM.

With `C=CC(=O)N(CC1CCCC1)c1cccc(-c2ccc(C(N)=O)c3[nH]ccc23)c1` [E.1.34, 4-(3-(N-(cyclopentylmethyl)acrylamido)phenyl)-1H-indole-7-carboxamide], the IC50 was in the range of 1000 to 10000 nM.

In the case of `Cc1c(NC(=O)/C=C/CN(C)C)cccc1-c1cnc(C(N)=O)c2[nH]ccc12` [J.2.1], the IC50 is 100 to 1000 nM.

Turning to `Cc1c(NC(=O)/C=C\C(N)=O)cccc1-c1ccc(C(N)=O)c2[nH]c(C3=CCN(S(C)(=O)=O)CC3)cc12` [D.7.10], the IC50 was < 100 nM.

In the case of `CC(C)(C)c1cc(C(=O)N[C@@H]2CCCN(c3ccc(C(N)=O)c4[nH]ccc34)C2)no1` [O.1.10*], the IC50 fell in the range of 1000 to 10000 nM.

In the case of `Cc1c(NC(=O)/C=C/CN(C)C)cccc1-c1ccc(C(N)=O)c2[nH]c(C3=CCN(S(C)(=O)=O)CC3)cc12` [D.7.2], the IC50 is < 100 nM.

As to `C=CC(=O)Nc1cc(OCc2ccccc2)ccc1-c1ccc(C(N)=O)c2[nH]ccc12` [E.1.17], the IC50 lay in the range of 1000 to 10000 nM.

For the molecule `COc1ccc(C(=O)N[C@@H]2CCCN(c3ccc(C(N)=O)c4[nH]c(-c5cnn(C)c5)cc34)C2)cc1` [O.1.20*], the IC50 is 100 to 1000 nM.

`Cc1c(NC(=O)COc2cccnn2)cccc1-c1ccc(C(N)=O)c2[nH]c(C3=CCN(S(C)(=O)=O)CC3)cc12` [D.7.28]: the IC50 was < 100 nM.

For the molecule `Cn1cc(-c2cc3c(N4CCC[C@@H](NC(=O)c5ccc(C6CC6)cc5)C4)ccc(C(N)=O)c3[nH]2)cn1` [O.1.25*], the IC50 is < 100 nM.

`COC(=O)/C=C/C(=O)Nc1cccc(-c2ccc(C(N)=O)c3[nH]c(C4=CCN(S(C)(=O)=O)CC4)cc23)c1C` [D.7.18]: the IC50 was < 100 nM.

Regarding `C=CC(=O)NCc1ccccc1-c1ccc(C(N)=O)c2[nH]c(C3=CCN(S(C)(=O)=O)CC3)cc12` [E.1.1], the IC50 was < 100 nM.

Consider `C=CC(=O)N1CC[C@@H](c2ccc(C(N)=O)c3[nH]c(-c4cc5n(n4)CCOC5)cc23)C1` [E.9.27], for which the IC50 was < 100 nM.

Regarding `C=CC(=O)Nc1cc(-c2ccc(C(N)=O)c3[nH]ccc23)ccc1C#N` [E.1.31], the IC50 was < 100 nM.

Turning to `CCC(=O)N1CC[C@H](c2ccc(C(N)=O)c3[nH]c(C)cc23)C1` [E.10.1], the IC50 lay in the range of 100 to 1000 nM.

Take `NC(=O)c1ccc(N2CCC[C@@H](NC(=O)Nc3nccs3)C2)c2cc[nH]c12` [O.1.7*]: the concentration for half-maximal inhibition (IC50) lay within 1000 to 10000 nM.

As for `C=CC(=O)Nc1cc(-c2ccc(C(N)=O)c3[nH]ccc23)ccc1OCc1nccs1` [E.1.13], the IC50 is 100 to 1000 nM.

As for `Cc1c(NC(=O)COc2ccc(C#N)cc2)cccc1-c1ccc(C(N)=O)c2[nH]c(C3=CCN(S(C)(=O)=O)CC3)cc12` [D.7.13], the IC50 was < 100 nM.

Turning to `C=CC(=O)N1CCOC[C@@H](c2ncc(C(N)=O)c3[nH]ccc23)C1` [E.9.30], the 50% inhibitory concentration (IC50) was < 100 nM.

On to `C=CC(=O)N1CC(N(C)c2ccc(C(N)=O)c3[nH]c(-c4ccnn4C)cc23)C1` [E.9.16], for which the half-maximal inhibitory concentration (IC50) is < 100 nM.

As to `NC(=O)c1ccc(N2CCC[C@@H](n3cnc4ccccc4c3=O)C2)c2cc(-c3ccc(F)cc3)[nH]c12` [O.1.14*], the IC50 lay in the range of 100 to 1000 nM.

`Cc1c(NC(=O)/C=C/CN2CCN(C)CC2)cccc1-c1ccc(C(N)=O)c2[nH]ccc12` [J.1.6]: the IC50 was in the range of 1000 to 10000 nM.

For the molecule `C=CC(=O)N1CC(N(C)c2ccc(C(N)=O)c3[nH]c(-c4cn(C)nc4C)cc23)C1` [E.9.18], the IC50 is < 100 nM.

Consider `C=CC(=O)N1CC[C@H](c2ccc(C(N)=O)c3[nH]c(C)cc23)C1` [E.9.41*], for which the IC50 fell in the range of 100 to 1000 nM.

With `C=CC(=O)N1CC([C@@H](C)c2ncc(C(N)=O)c3[nH]ccc23)C1` [E.9.28], the IC50 is < 100 nM.

Still in this experiment, the particulars now being: trFRET, 0.001 mM ATP, biotin-TYR1 peptide substrate; read-out: Btk IC50.
For the molecule `C=CC(=O)N[C@@H]1CCC[C@H](c2ccc(C(N)=O)c3[nH]ccc23)C1` (relative stereo) [Example 8, 4-(cis-3-Acrylamidocyclohexyl)-1H-indole-7-carboxamide], the IC50 is < 100 nM.

In the case of `C=CC(=O)Nc1cccc(-c2ccc(C(N)=O)c3[nH]c(-c4ccnn4C)cc23)c1C` [A.1.11], the IC50 was < 100 nM.

Consider `NC(=O)c1ccc(-c2ccn[nH]2)c2cc(-c3ccc(F)cc3)[nH]c12` [A.9.5], for which the IC50 was in the range of 100 to 1000 nM.

For `Cc1c(-c2ccc(C(N)=O)c3[nH]c(C4=CCN(S(C)(=O)=O)CC4)cc23)cccc1-n1cnc2ccccc2c1=O` [A.4.18], the IC50 was < 100 nM.

On to `C=C(CC)C(=O)Nc1cccc(-c2ccc(C(N)=O)c3[nH]ccc23)c1C` [D.8.11], for which the half-maximal inhibitory concentration (IC50) is 1000 to 10000 nM.

`C=CC(=O)Nc1cccc(-c2ccc(C(N)=O)c3[nH]c(-c4cccc(OC)c4)cc23)c1C` [A.1.22]: the IC50 is < 100 nM.

Regarding `C=CC(=O)N[C@H]1CCC[C@H](c2ccc(C(N)=O)c3[nH]ccc23)C1` (relative stereo) [Example 9, 4-(trans-3-Acrylamidocyclohexyl)-1H-indole-7-carboxamide], the IC50 was 100 to 1000 nM.

As to `C=CC(=O)N1CCc2cc(C(N)=O)c3[nH]ccc3c21` [Example 4, 1-Acryloyl-1,2,3,6-tetrahydropyrrolo[2,3-e]indole-5-carboxamide], the concentration for half-maximal inhibition (IC50) was in the range of 100 to 1000 nM.

Take `C=CC(=O)Nc1cccc(-c2ccc(C(N)=O)c3[nH]c(-c4ccc(C(=O)N5CCCC5)cc4)cc23)c1C` [A.1.38]: the IC50 was < 100 nM.

Consider `Cc1c(NC(=O)c2ccc(C(C)(C)C)cc2)cccc1-c1ccc(C(N)=O)c2[nH]c(-c3cccnc3)cc12` [A.7.1], for which the IC50 was < 100 nM.

For the molecule `Cc1c(NC(=O)c2ccc(C(F)F)cc2)cccc1-c1ccc(C(N)=O)c2[nH]c(C3=CCN(S(C)(=O)=O)CC3)cc12` [A.4.10], the IC50 was < 100 nM.

Take `C=CC(=O)Nc1cccc(-c2ccc(C(N)=O)c3[nH]c(-c4cccc(C(=O)N5CCN(C)CC5)c4)cc23)c1C` [A.1.31]: the IC50 is < 100 nM.

Consider `Cc1c(NC(=O)c2ccc(C(F)F)cc2)cccc1-c1ccc(C(N)=O)c2[nH]c(-c3cncnc3)cc12` [A.13.3], for which the IC50 was 100 to 1000 nM.

With `C=CC(=O)N1CC(Oc2ccc(C(N)=O)c3[nH]ccc23)C1` [Example 27, 4-((1-Acryloylazetidin-3-yl)oxy)-1H-indole-7-carboxamide], the IC50 is < 100 nM.

Consider `C=CC(=O)Nc1cccc(-c2ccc(C(N)=O)c3[nH]c(-c4ccncc4)cc23)c1C` [A.1.12], for which the IC50 was < 100 nM.

Take `Cc1c(NC(=O)/C=C/c2nccs2)cccc1-c1ccc(C(N)=O)c2[nH]ccc12` [D.8.5]: the IC50 lay within 100 to 1000 nM.

As to `CC(=O)Nc1cccc(-c2ccc(C(N)=O)c3[nH]ccc23)c1C` [D.8.12], the IC50 was 1000 to 10000 nM.

On to `C=CC(=O)Nc1ccc(C(N)=O)c2[nH]ccc12` [Example 5, 4-Acrylamido-1H-indole-7-carboxamide], for which the IC50 lay within 1000 to 10000 nM.

As for `NC(=O)c1ccc(-c2ccnc(N)c2)c2cc[nH]c12` [A.5.3, 4-(2-aminopyridin-4-yl)-1H-indole-7-carboxamide], the IC50 lay within 1000 to 10000 nM.

For the molecule `Cc1c(NC(=O)c2nccs2)cccc1-c1ccc(C(N)=O)c2[nH]cc(C)c12` [Example 3, N-(3-(7-carbamoyl-3-methyl-1H-indol-4-yl)-2-methylphenyl)thiazole-2-carboxamide], the IC50 lay within 100 to 1000 nM.

Consider `Cc1c(-c2ccc(C(N)=O)c3[nH]c(C4=CCN(C)C4)cc23)cccc1-n1cnc2ccccc2c1=O` [H.1, 2-(1-Methyl-2,5-dihydro-1H-pyrrol-3-yl)-4-(2-methyl-3-(4-oxoquinazolin-3(4H)-yl)phenyl)-1H-indole-7-carboxamide], for which the IC50 is < 100 nM.

As to `Cc1c(-c2ccc(C(N)=O)c3[nH]c(-c4cnn(C)c4)cc23)cccc1N(C(=O)c1nccs1)C1COC1` [A.10.3, N-(3-(7-carbamoyl-2-(1-methyl-1H-pyrazol-4-yl)-1H-indol-4-yl)-2-methylphenyl)-N-(oxetan-3-yl)thiazole-2-carboxamide], the IC50 is < 100 nM.

As to `C#CC(=O)NCc1ccccc1-c1cc2c(-c3cccc(NC(=O)c4nccs4)c3C)ccc(C(N)=O)c2[nH]1` [D.1.11], the IC50 was 100 to 1000 nM.

As for `Cc1c(-c2ccc(C(N)=O)c3[nH]c(C4=CCN(S(C)(=O)=O)CC4)cc23)cccc1N(C(=O)c1ccc(C(F)F)cc1)C1COC1` [A.4.12], the 50% inhibitory concentration (IC50) is < 100 nM.

Take `Cc1c(NC(=O)c2ccc(C3CC3)cc2)cccc1-c1ccc(C(N)=O)c2[nH]c(C3=CCN(S(C)(=O)=O)CC3)cc12` [A.4.16]: the IC50 was < 100 nM.

For `C=CC(=O)N1CC([C@H](C)c2ccc(C(N)=O)c3[nH]ccc23)C1` [28 (S), (S)-4-(1-(1-Acryloylazetidin-3-yl)ethyl)-1H-indole-7-carboxamide], the IC50 lay within 100 to 1000 nM.

As to `C=CC(=O)N1CC([C@@H](C)c2ccc(C(N)=O)c3[nH]ccc23)C1` [28 (R), (R)-4-(1-(1-acryloylazetidin-3-yl)ethyl)-1H-indole-7-carboxamide], the IC50 was < 100 nM.

With `NC(=O)c1ccc(-c2cccc(NC(=O)/C=C/C(=O)O)c2)c2cc[nH]c12` [C.1, (E)-4-((3-(7-Carbamoyl-1H-indol-4-yl)phenyl)amino)-4-oxobut-2-enoic acid], the IC50 was in the range of 1000 to 10000 nM.

On to `Cc1c(-c2ccc(C(N)=O)c3[nH]c(-c4cccnc4)cc23)cccc1N1Cc2ccccc2C1=O` [A.7.4], for which the concentration for half-maximal inhibition (IC50) is < 100 nM.

`NC(=O)c1ccc(-c2ccccc2NC(=O)Cn2sc3ccccc3c2=O)c2cc[nH]c12` [D.2.1]: the IC50 fell in the range of 1000 to 10000 nM.

In the case of `C=CC(=O)Nc1cccc(-c2ccc(C(N)=O)c3[nH]c(CCOCC)cc23)c1` [Example 22, 4-(3-Acrylamidophenyl)-2-(2-ethoxyethyl)-1H-indole-7-carboxamide], the IC50 was < 100 nM.

Consider `CCNC(=O)/C=C\C(=O)Nc1cccc(-c2ccc(C(N)=O)c3[nH]ccc23)c1C` [D.8.15], for which the IC50 was < 100 nM.

Regarding `C=CC(=O)Nc1cccc(-c2ccc(C(N)=O)c3[nH]c(-c4cnn(C(C)C)c4)cc23)c1C` [A.1.4], the IC50 was < 100 nM.
